In US20250171438A1 (Agios Pharmaceuticals, Inc., priority 2022, published 2025):

The molecules below were run against T1, human PAH with the R408W mutation (Homo sapiens, UniProt P00439, R408W) (assay: Cell Based Phenylalanine Flux Assay). Conditions: A375 cells expressing human R408W PAH; 24 hrs compound incubation; 13C-Tyrosine by LC-MS; average where tested multiple times; read-out: AC50.
T1 construct: expressed in transfected cells
T1 sequence (P00439 1-452 R408W): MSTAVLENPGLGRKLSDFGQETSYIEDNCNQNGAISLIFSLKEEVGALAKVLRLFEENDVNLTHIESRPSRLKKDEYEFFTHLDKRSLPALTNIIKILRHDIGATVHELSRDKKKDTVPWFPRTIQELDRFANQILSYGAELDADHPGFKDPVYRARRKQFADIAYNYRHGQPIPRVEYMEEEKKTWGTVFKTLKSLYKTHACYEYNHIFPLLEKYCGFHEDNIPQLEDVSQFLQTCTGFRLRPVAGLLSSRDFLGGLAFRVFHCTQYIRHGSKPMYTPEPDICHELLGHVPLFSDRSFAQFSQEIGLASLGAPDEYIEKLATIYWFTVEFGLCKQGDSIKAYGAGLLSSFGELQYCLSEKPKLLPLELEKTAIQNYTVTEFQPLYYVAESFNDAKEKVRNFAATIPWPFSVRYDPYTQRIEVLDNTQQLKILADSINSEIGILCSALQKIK
Parameters: scale not given here

| Molecule | AC50 |
| --- | --- |
| O=C(c1cnc(-c2cnn(CC(F)(F)F)c2)s1)N1CCc2[nH]cnc2[C@H]1c1nc2ccccc2s1 [Example 1361] | < 0.5 µM |
| CC(C)(O)c1ncc(C(=O)N2CCc3[nH]cnc3[C@H]2c2nc3ccccc3s2)s1 [Example 1435] | < 0.5 µM |
| O=C(c1oc(N2CCOCC2)nc1Br)N1CCc2[nH]cnc2[C@H]1c1nc2c(F)cccc2s1 [Example 2033] | < 0.5 µM |
| O=C(c1nncs1)N1CCc2[nH]cnc2[C@H]1c1nc2ccc(Cl)cc2[nH]1 [Example 958, (S)-(4-(6-chloro-1H-benzo[d]imidazol-2-yl)-6,7-dihydro-1H-imidazo[4,5-c]pyridin-5(4H)-yl)(1,3,4-thiadiazol-2-yl)methanone] | 0.5 to 1 µM |
| O=C(c1ccon1)N1CCc2[nH]cnc2[C@@H]1c1nc2ccc(Br)cc2[nH]1 [Example 982, (R)-(4-(6-bromo-1H-benzo[d]imidazol-2-yl)-6,7-dihydro-1H-imidazo[4,5-c]pyridin-5(4H)-yl)(isoxazol-3-yl)methanone] | 1 to 5 µM |
| Cc1c(C(=O)N2CCc3[nH]cnc3[C@H]2c2nc3c(F)cccc3s2)cnn1-c1ccccn1 [Example 1933, (S)-(4-(4-fluorobenzo[d]thiazol-2-yl)-6,7-dihydro-1H-imidazo[4,5-c]pyridin-5(4H)-yl)(5-methyl-1-(pyridin-2-yl)-1H-pyrazol-4-yl)methanone] | 1 to 5 µM |
| (R)-(5-(difluoromethyl)-1-methyl-1H-pyrazol-4-yl)(4-(4-fluorobenzo[d]thiazol-2-yl)-6,7-dihydro-1H-imidazo[4,5-c]pyridin-5(4H)-yl)methanone [Example 1744] | 1 to 5 µM |
| O=C(c1cnc(-c2ccccn2)o1)N1CC2(CC2)c2[nH]cnc2[C@H]1c1nc2ccccc2s1 [Example 1653, (S)-(4′-(benzo[d]thiazol-2-yl)spiro[cyclopropane-1,7′-imidazo[4,5-c]pyridin]-5′(1′H,4′H,6′H)-yl)(2-(pyridin-2-yl)oxazol-5-yl)methanone] | 0.5 to 1 µM |
| O=C(c1nncn1C1CC1)N1CCc2[nH]cnc2[C@@H]1c1nc2c(F)cccc2s1 [Example 2083, (R)-(4-cyclopropyl-4H-1,2,4-triazol-3-yl)(4-(4-fluorobenzo[d]thiazol-2-yl)-6,7-dihydro-1H-imidazo[4,5-c]pyridin-5(4H)-yl)methanone] | 1 to 5 µM |
| CCn1cnnc1C(=O)N1CCc2[nH]cnc2[C@H]1c1nc2c(F)cccc2s1 [Example 2044] | 0.5 to 1 µM |
| Cc1ocnc1CC(=O)N1CCc2[nH]cnc2[C@H]1c1nc2ccccc2s1 [Example 1531] | < 0.5 µM |
| O=C(c1nnc(-c2ccccn2)o1)N1CCc2[nH]cnc2[C@H]1c1nc2cc(F)ccc2s1 [Example 1748, (S)-(4-(5-fluorobenzo[d]thiazol-2-yl)-6,7-dihydro-1H-imidazo[4,5-c]pyridin-5(4H)-yl)(5-(pyridin-2-yl)-1,3,4-oxadiazol-2-yl)methanone] | < 0.5 µM |
| O=C(N1CCc2[nH]cnc2[C@@H]1c1nc2ccccc2s1)C(F)(F)C1(O)CCC1 [Example 1688, (R)-1-(4-(benzo[d]thiazol-2-yl)-6,7-dihydro-1H-imidazo[4,5-c]pyridin-5(4H)-yl)-2,2-difluoro-2-(1-hydroxycyclobutyl)ethanone] | 1 to 5 µM |
| O=C(c1ccns1)N1CCc2[nH]cnc2[C@@H]1c1nc2ccccc2s1 [Example 1052, (R)-(4-(benzo[d]thiazol-2-yl)-6,7-dihydro-1H-imidazo[4,5-c]pyridin-5(4H)-yl)(isothiazol-5-yl)methanone] | > 5 µM |
| Cc1ncoc1C(=O)N1CCc2[nH]cnc2[C@H]1c1nc2c(F)cccc2s1 [Example 1319, (S)-(4-(4-fluorobenzo[d]thiazol-2-yl)-6,7-dihydro-1H-imidazo[4,5-c]pyridin-5(4H)-yl)(4-methyloxazol-5-yl)methanone] | < 0.5 µM |
| CN1CCN(c2nc(C(F)(F)F)c(C(=O)N3CCc4[nH]cnc4[C@H]3c3nc4c(F)cccc4s3)o2)CC1 [Example 1623, (S)-(4-(4-fluorobenzo[d]thiazol-2-yl)-6,7-dihydro-1H-imidazo[4,5-c]pyridin-5(4H)-yl)(2-(4-methylpiperazin-1-yl)-4-(trifluoromethyl)oxazol-5-yl)methanone] | < 0.5 µM |
| CC(C)n1ncc(C(=O)N2CCc3[nH]cnc3[C@H]2c2nc3c(F)cccc3s2)c1Cl [Example 1951] | 0.5 to 1 µM |
| O=C(c1ncn2ccccc12)N1CCc2[nH]cnc2[C@@H]1c1nc2cc(F)ccc2s1 [Example 1106, (R)-(4-(5-fluorobenzo[d]thiazol-2-yl)-6,7-dihydro-1H-imidazo[4,5-c]pyridin-5(4H)-yl)(imidazo[1,5-a]pyridin-1-yl)methanone] | 1 to 5 µM |
| Cc1nc(CC2CC2)oc1C(=O)N1CCc2[nH]cnc2[C@H]1c1nc2ccccc2s1 [Example 1399] | < 0.5 µM |
| O=C(c1oc(-c2ccccn2)nc1C(F)(F)F)N1CC2(CC2)c2[nH]cnc2[C@@H]1c1nc2ccccc2s1 [Example 1682, (R)-(4′-(benzo[d]thiazol-2-yl)spiro[cyclopropane-1,7′-imidazo[4,5-c]pyridin]-5′(1′H,4′H,6′H)-yl)(2-(pyridin-2-yl)-4-(trifluoromethyl)oxazol-5-yl)methanone] | 1 to 5 µM |
| CC[C@@H](O)c1nc(C(F)F)c(C(=O)N2CCc3[nH]cnc3[C@H]2c2nc3c(F)cccc3s2)o1 [Example 2067] | < 0.5 µM |
| Cc1nc(C(F)(F)F)oc1C(=O)N1CCc2[nH]cnc2[C@H]1c1nc2ccccc2s1 [Example 1393] | < 0.5 µM |
| O=C(c1ncn2ccccc12)N1CCc2[nH]cnc2[C@H]1c1nc2ccccc2s1 [Example 1027] | 0.5 to 1 µM |
| O=C(c1conc1C(F)(F)F)N1CCc2[nH]cnc2[C@@H]1c1nc2c(F)cccc2s1 [Example 1636, (R)-(4-(4-fluorobenzo[d]thiazol-2-yl)-6,7-dihydro-1H-imidazo[4,5-c]pyridin-5(4H)-yl)(3-(trifluoromethyl)isoxazol-4-yl)methanone] | 0.5 to 1 µM |
| O=C(c1cnc(-c2cnn(CC(F)(F)F)c2)o1)N1CCc2[nH]cnc2[C@H]1c1nc2ccccc2s1 [Example 1391] | < 0.5 µM |
| ((4R)-4-(benzo[d]thiazol-2-yl)-3a,4,6,7,8,8a-hexahydroimidazo[4,5-c]azepin-5(1H)-yl)(4-cyclopropyloxazol-5-yl)methanone [Example 2168] | 1 to 5 µM |
| CN(C)Cc1nc(C(F)F)c(C(=O)N2CCc3[nH]cnc3[C@@H]2c2nc3ccccc3s2)o1 [Example 1782, (R)-(4-(benzo[d]thiazol-2-yl)-6,7-dihydro-1H-imidazo[4,5-c]pyridin-5(4H)-yl)(4-(difluoromethyl)-2-((dimethylamino)methyl)oxazol-5-yl)methanone] | 0.5 to 1 µM |
| (R)-2-((4-(6-bromo-1H-benzo[d]imidazol-2-yl)-6,7-dihydro-1H-imidazo[4,5-c]pyridin-5(4H)-yl)methyl)thiazole [Example 968] | 1 to 5 µM |
| O=C(c1cnn2ccccc12)N1CCc2[nH]cnc2[C@H]1c1nc2cccc(F)c2[nH]1 [Example 990, (S)-(4-(7-fluoro-1H-benzo[d]imidazol-2-yl)-6,7-dihydro-1H-imidazo[4,5-c]pyridin-5(4H)-yl)(pyrazolo[1,5-a]pyridin-3-yl)methanone] | 0.5 to 1 µM |

Same assay, conditions: A375 cells expressing human R408W PAH; 24 hrs with compound; 13C-Tyrosine by LC-MS; average where tested multiple times

| Molecule | AC50 |
| --- | --- |
| O=C(c1c(C(F)(F)F)nn2ccccc12)N1CCc2[nH]cnc2C1c1nc2ccccc2s1 (stereo not drawn) | E, E |

Same assay, conditions: A375 cells expressing human R408W PAH; 24 hrs with compound; 13C-Tyrosine by LC-MS; average where tested multiple times; read-out: AC50

| Molecule | AC50 |
| --- | --- |
| Cc1nc(-c2ccccn2)oc1C(=O)N1CC2(CC2)c2[nH]cnc2[C@H]1c1nc2ccccc2s1 (single isomer, unassigned) | 1 to 5 µM |
| Cc1ncc(C(=O)N2CCc3[nH]cnc3C2c2nc3c(F)cccc3s2)o1 (stereo not drawn) | > 5 µM |
| CC(C)(O)Cn1ncc(C(=O)N2CCc3[nH]cnc3C2c2nc3c(F)cccc3s2)c1Cl (stereo not drawn) | > 5 µM |
| Cc1cc(C(=O)N2CCc3[nH]cnc3C2c2nc3c(F)cccc3s2)n(-c2ccc(F)cc2)n1 (stereo not drawn) | 1 to 5 µM |
| O=C(c1cn[nH]c1)N1CCc2[nH]cnc2C1c1nc2ccccc2s1 (stereo not drawn) | 1 to 5 µM |
| O=C(c1nc2c(F)cccc2s1)N1CCc2[nH]cnc2[C@H]1c1nc2ccccc2[nH]1 [(S)-(4-(1H-benzo[d]imidazol-2-yl)-1,4,6,7-tetrahydro-5H-imidazo[4,5-c]pyridin-5-yl)(4-fluorobenzo[d]thiazol-2-yl)methanone] | 1 to 5 µM |
| O=C(c1ccn[nH]1)N1CCc2[nH]cnc2C1c1nc2ccccc2s1 (stereo not drawn) | > 5 µM |
| O=C(C1CC1)N1CCc2[nH]cnc2[C@H]1c1nc2ccccc2[nH]1 [(S)-(4-(1H-benzo[d]imidazol-2-yl)-1,4,6,7-tetrahydro-5H-imidazo[4,5-c]pyridin-5-yl)(cyclopropyl)methanone] | 1 to 5 µM |
| O=C(c1cnn2cc(Cl)ccc12)N1CCc2[nH]cnc2C1c1nc2ccc(F)cc2s1 (stereo not drawn) | 1 to 5 µM |
| O=C(c1nc2ccccc2s1)N1CCc2[nH]cnc2C1c1nc2ccc(Br)cc2[nH]1 (stereo not drawn) | 1 to 5 µM |
| Cc1nc(C(=O)N2CCc3[nH]cnc3C2c2nc3ccccc3s2)n(C)n1 (stereo not drawn) | 1 to 5 µM |
| COCc1ncc(C(=O)N2CCc3[nH]cnc3C2c2nc3ccccc3s2)o1 (stereo not drawn) | > 5 µM |
| Cc1cccc2sc(C3c4nc[nH]c4CCN3C(=O)c3cnn(C)c3Cl)nc12 (stereo not drawn) | 1 to 5 µM |
| Cc1nnc(CCC(=O)N2CCc3[nH]cnc3C2c2nc3cccc(F)c3s2)s1 (stereo not drawn) | > 5 µM |

Same assay, conditions: AC50, A375 cells expressing human R408W PAH; 24 hrs with compound; 13C-Tyrosine by LC-MS; average where tested multiple times

| Molecule | AC50 |
| --- | --- |
| Cc1nnc(C(=O)N2CCc3[nH]cnc3C2c2nc3ccc(Cl)cc3[nH]2)s1 (stereo not drawn) | > 5 µM |
